# Reference: ChEMBL document CHEMBL1201862, “PubChem BioAssay data set” (2004)
#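 How tested: cells in 96-well plates exposed to compound for 48 hours at five concentrations. GI50: concentration for 50% inhibition of growth.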 The source made the active and inactive calls. No stated cut-off is given here; in the data, active = GI50 up to about 1.1 µM and inactive = higher. Peptide text beside a SMILES is read from it. * marks the point of attachment. Boc = CC(C)(C)OC(=O)*; OBn = c1ccc(CO*)cc1
# Assays:
# Assay in all cases: NCI tumour cell line growth inhibition, 48 h
# A549 = system: A549
# COLO 205 = system: COLO 205
# DU-145 = system: DU-145
# EKVX = system: EKVX
# HCT-15 = system: HCT-15
# Hs-578T = system: Hs-578T
# LOX IMVI = system: LOX IMVI
# MDA-MB-231 = system: MDA-MB-231
# MDA-N = system: MDA-N
# MOLT-4 = system: MOLT-4
# NCI-H226 = system: NCI-H226
# NCI/ADR-RES = system: NCI/ADR-RES
# OVCAR-3 = system: OVCAR-3
# SF-539 = system: SF-539
# SR = system: SR
# U-251 = system: U-251
# UACC-257 = system: UACC-257
# UACC-62 = system: UACC-62
# SK-MEL-28 = system: SK-MEL-28
SMILES,GI50 (A549),GI50 (COLO 205),GI50 (DU-145),GI50 (EKVX),GI50 (HCT-15) [µM],GI50 (Hs-578T),GI50 (LOX IMVI),GI50 (MDA-MB-231),GI50 (MDA-N),GI50 (MOLT-4),GI50 (NCI-H226),GI50 (NCI/ADR-RES),GI50 (OVCAR-3),GI50 (SF-539),GI50 (SR),GI50 (U-251),GI50 (UACC-257),GI50 (UACC-62),GI50 (SK-MEL-28)
C=C(C1=CC(=O)C(C)(C)O1)[C@@H]1CC=C([C@@H]2CC[C@H]3[C@@]2(C)CC[C@H]2C(C)(C)C(=O)[C@H](OC(=O)CC(C)(O)CC(=O)O)C[C@]32C)[C@H](O)O1 (stereo partly specified),17.6 µM (inactive),12.5 µM (inactive),16.7 µM (inactive),15.3 µM (inactive),13.3,23.9 µM (inactive),13.1 µM (inactive),17.4 µM (inactive),13.9 µM (inactive),4.14 µM (inactive),16.3 µM (inactive),19 µM (inactive),11.9 µM (inactive),13 µM (inactive),12.6 µM (inactive),13.5 µM (inactive),15.2 µM (inactive),12.1 µM (inactive),
Cc1sc2c(c1C)/C(=N\O)c1cccn1-2,44.5 µM (inactive),> 100 µM (inactive),61 µM (inactive),22.2 µM (inactive),81.8,16.9 µM (inactive),55.7 µM (inactive),52.8 µM (inactive),40.6 µM (inactive),17.3 µM (inactive),29.7 µM (inactive),53.3 µM (inactive),42.9 µM (inactive),,22.6 µM (inactive),26.7 µM (inactive),93.5 µM (inactive),95.7 µM (inactive),93.3 µM (inactive)
CC(NC(=O)Cc1ccccc1)NC(=O)C(C)C(=O)Nc1ccccc1 (stereo unspecified),> 100 µM (inactive),> 100 µM (inactive),> 100 µM (inactive),> 100 µM (inactive),> 100,23.7 µM (inactive),,65.6 µM (inactive),> 100 µM (inactive),> 100 µM (inactive),23.3 µM (inactive),> 100 µM (inactive),,> 100 µM (inactive),> 100 µM (inactive),43.3 µM (inactive),> 100 µM (inactive),> 100 µM (inactive),
CC(=O)OC[C@@]12C[C@H]3C(=O)C(C)(C)C[C@H]3[C@]1(C)[C@@H](OC(C)=O)[C@]1(O)[C@H]([C@@H](OC(=O)c3ccccc3)[C@@H](C)[C@H]1OC(C)=O)[C@H]2OC(C)=O,,8.71 µM (inactive),> 20 µM (inactive),> 20 µM (inactive),> 20,> 20 µM (inactive),> 20 µM (inactive),> 20 µM (inactive),12.9 µM (inactive),9.02 µM (inactive),> 20 µM (inactive),> 20 µM (inactive),> 20 µM (inactive),16.5 µM (inactive),> 20 µM (inactive),> 20 µM (inactive),> 20 µM (inactive),> 20 µM (inactive),
Cc1ccc(S(=O)(=O)N/N=C2\CC(C)OC3=C2CCCCCC3)cc1 (stereo unspecified),16.7 µM (inactive),20.9 µM (inactive),19.4 µM (inactive),15.2 µM (inactive),,21.2 µM (inactive),18.7 µM (inactive),19.1 µM (inactive),> 100 µM (inactive),14.6 µM (inactive),21.6 µM (inactive),20.5 µM (inactive),19.7 µM (inactive),20.5 µM (inactive),17 µM (inactive),,18.7 µM (inactive),14.5 µM (inactive),22.1 µM (inactive)
CCCC(=O)Nc1cc(/C=C/C(=O)N2CC(CCl)c3ccc([N+](=O)[O-])cc32)n(C)c1 (stereo unspecified),58.3 µM (inactive),> 100 µM (inactive),> 100 µM (inactive),> 100 µM (inactive),> 100,26.8 µM (inactive),73.5 µM (inactive),21.6 µM (inactive),> 100 µM (inactive),,21.8 µM (inactive),30.7 µM (inactive),> 100 µM (inactive),43.4 µM (inactive),> 100 µM (inactive),> 100 µM (inactive),> 100 µM (inactive),> 100 µM (inactive),> 100 µM (inactive)
Cc1cccc(N(C(=O)Nc2ccc(Cl)c(Cl)c2)C2=NCC(C)S2)c1 (stereo unspecified),38.9 µM (inactive),44.7 µM (inactive),> 100 µM (inactive),84.7 µM (inactive),41.6,32.5 µM (inactive),18.3 µM (inactive),29.8 µM (inactive),32.9 µM (inactive),16.2 µM (inactive),,28 µM (inactive),74.5 µM (inactive),22.7 µM (inactive),32.6 µM (inactive),62.5 µM (inactive),42.9 µM (inactive),,38.6 µM (inactive)
COc1ccc2c(c1)nc1n2C(c2c(Cl)cccc2Cl)SC1 (stereo unspecified),18 µM (inactive),4.63 µM (inactive),22.3 µM (inactive),> 64.1 µM (inactive),5.81,5.45 µM (inactive),25.8 µM (inactive),29.3 µM (inactive),2.26 µM (inactive),> 21.6 µM (inactive),> 21.8 µM (inactive),4.12 µM (inactive),> 20.5 µM (inactive),9.1 µM (inactive),,21.4 µM (inactive),37.8 µM (inactive),18.4 µM (inactive),25.9 µM (inactive)
Cc1ccc(S(=O)(=O)NC(=O)C2C(=O)CC3(CCCCC3)CC2=O)cc1,33.3 µM (inactive),17.9 µM (inactive),37.5 µM (inactive),25.4 µM (inactive),23.2,41.9 µM (inactive),55.2 µM (inactive),36.1 µM (inactive),29.3 µM (inactive),42.4 µM (inactive),34.8 µM (inactive),19.7 µM (inactive),29 µM (inactive),30.7 µM (inactive),,38.4 µM (inactive),28.6 µM (inactive),31.3 µM (inactive),
CC(C)CC(NC(=O)OC(C)(C)C)C(=O)NC(CC(=O)OCc1ccccc1)C(N)=O (stereo not drawn) (Boc-Leu-Asp(OBn)-NH2; configuration not given here),> 100 µM (inactive),> 100 µM (inactive),> 100 µM (inactive),> 100 µM (inactive),> 100,58.9 µM (inactive),> 100 µM (inactive),> 100 µM (inactive),> 100 µM (inactive),,> 100 µM (inactive),> 100 µM (inactive),> 100 µM (inactive),> 100 µM (inactive),> 100 µM (inactive),> 100 µM (inactive),> 100 µM (inactive),> 100 µM (inactive),> 100 µM (inactive)
C=C1C(=O)OC2(C)CCC1CC1OC1(C)CCC=C(C)CCC2O (stereo unspecified),> 100 µM (inactive),> 100 µM (inactive),55 µM (inactive),> 100 µM (inactive),69.3,57.5 µM (inactive),> 100 µM (inactive),> 100 µM (inactive),25.5 µM (inactive),30.3 µM (inactive),> 100 µM (inactive),> 100 µM (inactive),> 100 µM (inactive),88.3 µM (inactive),,> 100 µM (inactive),> 100 µM (inactive),61.9 µM (inactive),> 100 µM (inactive)
COc1cc(C2S/C(=C/c3ccccc3)C(=O)N2Cc2ccccc2)cc(OC)c1OC (stereo unspecified),27.3 µM (inactive),30.1 µM (inactive),47 µM (inactive),55.6 µM (inactive),40.1,30.2 µM (inactive),32.1 µM (inactive),> 100 µM (inactive),19.3 µM (inactive),18.4 µM (inactive),> 100 µM (inactive),26.4 µM (inactive),,,20 µM (inactive),32.7 µM (inactive),> 100 µM (inactive),23.5 µM (inactive),88.9 µM (inactive)
CN1C=COC1N=C1CCCCC1 (stereo unspecified),> 100 µM (inactive),> 100 µM (inactive),> 100 µM (inactive),> 100 µM (inactive),> 100,> 100 µM (inactive),> 100 µM (inactive),> 100 µM (inactive),> 100 µM (inactive),> 100 µM (inactive),> 100 µM (inactive),> 100 µM (inactive),> 100 µM (inactive),> 100 µM (inactive),> 100 µM (inactive),> 100 µM (inactive),,> 100 µM (inactive),> 100 µM (inactive)
Cc1csc2c(=O)n(C3OC(CO)C(O)C3O)c(=O)[nH]c12 (stereo unspecified),> 100 µM (inactive),> 100 µM (inactive),> 100 µM (inactive),> 100 µM (inactive),,> 100 µM (inactive),> 100 µM (inactive),> 100 µM (inactive),> 100 µM (inactive),> 100 µM (inactive),> 100 µM (inactive),> 100 µM (inactive),> 100 µM (inactive),> 100 µM (inactive),> 100 µM (inactive),> 100 µM (inactive),> 100 µM (inactive),,> 100 µM (inactive)
CC1=CC(=O)/C(=C/NC(=S)Nc2ccccc2)C(=O)O1,> 100 µM (inactive),> 100 µM (inactive),> 100 µM (inactive),> 100 µM (inactive),> 100,> 100 µM (inactive),> 100 µM (inactive),> 100 µM (inactive),> 100 µM (inactive),> 100 µM (inactive),> 100 µM (inactive),> 100 µM (inactive),> 100 µM (inactive),> 100 µM (inactive),,> 100 µM (inactive),> 100 µM (inactive),> 100 µM (inactive),
